In US9795551B2, “Tetrapeptides and a method of use as an antioxidant” (L'OREAL, priority 2014, dated 2017) one finds HORAC/hydroxyl and ORAC/peroxyl data, which are given here for 17 compounds.

Test [1] is described as follows: HORAC hydroxyl radical absorbance capacity (USTM 190), in tubo. The protocol:
(§1) In the screening standard testing for oxygen radical absorbance capacity (ORAC) and hydroxyl radical absorbance capacity (HORAC) were conducted with the test polypeptides. Testing was conducted according to USTM 190 (HORAC) and USTM 192 (ORAC).
(§2) The peptides were tested in tubo for their antioxidant properties and tested against reference/known antioxidants. The evaluation of the antioxidant properties were conducted by determination of the ORAC (USTM 192) and HORAC (USTM 190) test methods. The results are listed in Table I for the peptides of the invention and for the conventionally known antioxidants vitamin C and Carnosine.

The nature of test [2]: ORAC oxygen radical absorbance capacity (USTM 192), in tubo. The procedure:
as §1, §2

Take RyR-NH2 [RED32]: in test [1], the HORAC/hydroxyl is 230 μmol GAE/g. The ORAC/peroxyl in test [2] turned out to be 3385 μmol GAE/g.

For the compound WRYr-NH2 [RED19], the HORAC/hydroxyl in test [1] was 1457 μmol GAE/g. In test [2], this compound returned an ORAC/peroxyl of 4350 μmol GAE/g.

Turning to `O=C1O[C@H]([C@@H](O)CO)C(O)=C1O` [Vitamin C, reference compound], the HORAC/hydroxyl in test [1] worked out at 0 μmol GAE/g. The compound further returned an ORAC/peroxyl in test [2] of 4456 μmol GAE/g.

wRyR-NH2 [RED22]: the HORAC/hydroxyl in test [1] turned out to be 1686 μmol GAE/g. In test [2], this compound had an ORAC/peroxyl of 5383 μmol GAE/g.

For WRyR-NH2 [RED21], the HORAC/hydroxyl in test [1] is given as 2472 μmol GAE/g. The ORAC/peroxyl in test [2] was 4816 μmol GAE/g.

In the case of wRyRy-NH2 [RED28], the HORAC/hydroxyl entry in test [1] was “No capacity”. Moreover, the ORAC/peroxyl in test [2] came out at 5216 μmol GAE/g.

As to wRYR-NH2 [RED24], in test [1], the HORAC/hydroxyl turned out to be 2225 μmol GAE/g. Besides, the ORAC/peroxyl in test [2] is listed as 4077 μmol GAE/g.

In turn, `NCCC(=O)N[C@@H](Cc1c[nH]cn1)C(=O)O` [Carnosine, β-alanyl-histidine, reference compound] yielded an HORAC/hydroxyl in test [1] of 2099 μmol GAE/g. The ORAC/peroxyl in test [2] was determined as 354 μmol GAE/g.

Regarding wRyRw-NH2 [RED29], in test [1], the HORAC/hydroxyl entry is reported as “No capacity”. In test [2], this compound returned an ORAC/peroxyl of 5512 μmol GAE/g.

Turning to RwRyR-NH2 [RED26], in test [1], the HORAC/hydroxyl result is reported as “No capacity”. The ORAC/peroxyl in test [2] is 4461 μmol GAE/g.

The compound wRwR-NH2 [RED31] registered an HORAC/hydroxyl in test [1] of 1189 μmol GAE/g. The ORAC/peroxyl in test [2] came out at 4652 μmol GAE/g.

The compound WrYR-NH2 [RED20] returned an HORAC/hydroxyl in test [1] of 1666 μmol GAE/g. In test [2], this compound yielded an ORAC/peroxyl of 4448 μmol GAE/g.

Ac-wRyR-NH2 [RED27] came in with an HORAC/hydroxyl in test [1] of 735 μmol GAE/g. This compound also returned an ORAC/peroxyl in test [2] of 5342 μmol GAE/g.

With WKYK-NH2 [RED25], the HORAC/hydroxyl in test [1] worked out at 2476 μmol GAE/g. The same compound came in with an ORAC/peroxyl in test [2] of 4168 μmol GAE/g.

WRYR [RED23]: in test [1], the HORAC/hydroxyl came to 2089 μmol GAE/g. The compound also yielded an ORAC/peroxyl in test [2] of 4091 μmol GAE/g.

In turn, WrYr-NH2 [RED18] gave an HORAC/hydroxyl in test [1] of 2982 μmol GAE/g. Also, in test [2], the ORAC/peroxyl stood at 4758 μmol GAE/g.

WRYR-NH2 [RED6] showed an HORAC/hydroxyl in test [1] of 1548 μmol GAE/g. In test [2], this compound registered an ORAC/peroxyl of 4488 μmol GAE/g.
